Among the data in article PMC12136037, “Type II kinase inhibitors that target Parkinson’s disease–associated LRRK2” (Science Advances, 2025) are dTm values, retold here.

Common to all, as to experiment: DSF 100 kinase selectivity screen;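 further: compound tested at 20 µM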
Type in all cases: binding

Assay [1] addresses T1, ~100 representative kinases (Homo sapiens, UniProt O15264).
T1 construct: Recombinant protein kinase domains with a concentration of 2 μM
T1 sequence (O15264 1-365): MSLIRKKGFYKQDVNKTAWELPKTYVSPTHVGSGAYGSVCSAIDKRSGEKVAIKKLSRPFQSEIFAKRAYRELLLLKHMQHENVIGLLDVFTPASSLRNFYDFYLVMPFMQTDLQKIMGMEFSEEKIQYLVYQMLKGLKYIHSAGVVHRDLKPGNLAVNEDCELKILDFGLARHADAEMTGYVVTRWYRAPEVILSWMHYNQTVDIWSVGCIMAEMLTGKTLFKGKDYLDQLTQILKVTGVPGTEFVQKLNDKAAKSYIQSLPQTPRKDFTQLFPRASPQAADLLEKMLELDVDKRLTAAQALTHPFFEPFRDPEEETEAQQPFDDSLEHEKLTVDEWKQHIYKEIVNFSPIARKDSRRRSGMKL
The settings on record: protein MAPK13; average of three replicates. An outline of the steps:
(§1)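 Each kinase domain, at 2 μM, is mixed with 20 μM test compound and SYPRO Orange in Hepes (20 mM, pH 7.5) with 500 mM NaCl. Temperature is then raised at 3°C/min and fluorescence-monitored unfolding yields the melting temperature change, ΔTm in degrees Celsius.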

The target in assay [2] is T2, ~100 representative kinases (Homo sapiens, UniProt P21675).
T2 construct: Recombinant protein kinase domains with a concentration of 2 μM
T2 sequence (P21675 whole entry, the tested form may be a part): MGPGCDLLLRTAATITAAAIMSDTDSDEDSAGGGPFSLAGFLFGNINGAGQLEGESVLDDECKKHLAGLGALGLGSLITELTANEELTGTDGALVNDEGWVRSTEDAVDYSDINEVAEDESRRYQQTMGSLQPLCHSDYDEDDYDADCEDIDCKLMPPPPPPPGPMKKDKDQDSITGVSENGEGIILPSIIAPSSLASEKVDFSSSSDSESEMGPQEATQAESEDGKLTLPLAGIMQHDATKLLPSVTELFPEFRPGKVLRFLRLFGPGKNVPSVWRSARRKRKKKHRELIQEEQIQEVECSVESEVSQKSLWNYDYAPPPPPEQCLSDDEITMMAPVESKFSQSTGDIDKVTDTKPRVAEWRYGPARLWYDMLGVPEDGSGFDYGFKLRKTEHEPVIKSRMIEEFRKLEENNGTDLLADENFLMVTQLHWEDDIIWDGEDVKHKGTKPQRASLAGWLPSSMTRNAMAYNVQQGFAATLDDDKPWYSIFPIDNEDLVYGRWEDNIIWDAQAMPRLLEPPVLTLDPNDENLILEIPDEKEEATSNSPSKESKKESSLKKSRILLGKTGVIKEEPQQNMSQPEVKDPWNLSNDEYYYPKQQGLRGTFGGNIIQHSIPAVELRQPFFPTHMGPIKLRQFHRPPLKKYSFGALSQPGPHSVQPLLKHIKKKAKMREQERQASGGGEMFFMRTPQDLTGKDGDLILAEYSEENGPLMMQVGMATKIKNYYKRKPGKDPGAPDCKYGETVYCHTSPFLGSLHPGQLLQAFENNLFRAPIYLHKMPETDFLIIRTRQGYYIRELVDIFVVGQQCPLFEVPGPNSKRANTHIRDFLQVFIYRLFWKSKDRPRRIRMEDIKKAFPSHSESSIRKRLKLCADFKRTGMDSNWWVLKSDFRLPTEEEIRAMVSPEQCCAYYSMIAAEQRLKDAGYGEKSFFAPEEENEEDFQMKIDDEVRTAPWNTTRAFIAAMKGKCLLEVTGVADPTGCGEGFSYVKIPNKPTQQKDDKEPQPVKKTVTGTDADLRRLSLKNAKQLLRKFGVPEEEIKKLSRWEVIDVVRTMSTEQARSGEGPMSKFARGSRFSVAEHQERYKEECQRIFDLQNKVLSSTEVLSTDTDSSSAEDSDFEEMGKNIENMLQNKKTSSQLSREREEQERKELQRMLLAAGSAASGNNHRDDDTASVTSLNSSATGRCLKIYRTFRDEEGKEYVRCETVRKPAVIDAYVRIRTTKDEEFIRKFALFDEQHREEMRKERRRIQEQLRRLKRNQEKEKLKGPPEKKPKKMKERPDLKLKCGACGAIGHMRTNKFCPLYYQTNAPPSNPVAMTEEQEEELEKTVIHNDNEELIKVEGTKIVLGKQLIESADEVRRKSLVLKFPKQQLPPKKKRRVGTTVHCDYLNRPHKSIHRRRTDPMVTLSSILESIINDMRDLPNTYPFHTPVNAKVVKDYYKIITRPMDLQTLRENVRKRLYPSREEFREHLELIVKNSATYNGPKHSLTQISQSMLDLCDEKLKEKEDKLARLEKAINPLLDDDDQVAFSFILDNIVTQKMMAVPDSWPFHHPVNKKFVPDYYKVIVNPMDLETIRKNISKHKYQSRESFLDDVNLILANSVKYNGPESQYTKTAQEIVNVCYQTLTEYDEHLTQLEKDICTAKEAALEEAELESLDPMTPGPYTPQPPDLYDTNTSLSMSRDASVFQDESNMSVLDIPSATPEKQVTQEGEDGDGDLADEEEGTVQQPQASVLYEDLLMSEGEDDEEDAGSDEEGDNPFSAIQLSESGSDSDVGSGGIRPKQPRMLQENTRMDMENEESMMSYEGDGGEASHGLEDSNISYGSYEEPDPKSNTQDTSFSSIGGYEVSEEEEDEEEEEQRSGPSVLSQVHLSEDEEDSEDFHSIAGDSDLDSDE
The settings on record: Protein TAF1; DSF; average of three replicates. In short, it runs like this:
as §1

The target of assay [3] is T3, ~100 representative kinases (Homo sapiens, UniProt P49761).
T3 construct: Recombinant protein kinase domains with a concentration of 2 μM
T3 sequence (P49761 whole entry, the tested form may be a part): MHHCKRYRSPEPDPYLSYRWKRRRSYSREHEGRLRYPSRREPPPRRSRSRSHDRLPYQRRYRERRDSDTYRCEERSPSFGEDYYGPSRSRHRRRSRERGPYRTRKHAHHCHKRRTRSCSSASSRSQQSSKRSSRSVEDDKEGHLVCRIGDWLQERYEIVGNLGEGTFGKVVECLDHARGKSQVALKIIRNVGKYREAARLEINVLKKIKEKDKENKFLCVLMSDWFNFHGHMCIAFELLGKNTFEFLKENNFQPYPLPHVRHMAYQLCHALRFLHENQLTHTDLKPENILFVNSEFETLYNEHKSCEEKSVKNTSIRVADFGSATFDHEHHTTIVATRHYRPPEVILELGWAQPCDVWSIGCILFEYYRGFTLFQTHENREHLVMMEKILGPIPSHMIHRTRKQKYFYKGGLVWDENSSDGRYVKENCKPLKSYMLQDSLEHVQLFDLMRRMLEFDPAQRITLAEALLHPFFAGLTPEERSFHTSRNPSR
The settings on record: Protein CLK3; average of three replicates. An outline of the steps:
as §1

In assay [4] the target is T4, ~100 representative kinases (Homo sapiens, UniProt P52564).
T4 construct: Recombinant protein kinase domains with a concentration of 2 μM
T4 sequence (P52564 1-334): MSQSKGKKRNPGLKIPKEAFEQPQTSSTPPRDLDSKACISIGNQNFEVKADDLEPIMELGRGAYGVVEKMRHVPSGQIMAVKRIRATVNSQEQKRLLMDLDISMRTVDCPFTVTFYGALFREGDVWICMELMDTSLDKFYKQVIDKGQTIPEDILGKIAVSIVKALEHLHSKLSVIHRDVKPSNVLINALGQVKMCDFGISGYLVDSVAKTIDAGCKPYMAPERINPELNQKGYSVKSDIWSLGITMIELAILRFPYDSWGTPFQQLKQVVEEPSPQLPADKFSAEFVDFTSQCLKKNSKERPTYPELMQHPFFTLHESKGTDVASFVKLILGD
The following applies: protein MAP2K6; average of three replicates. An outline of the steps:
as §1

For assay [5], the target named is T5, ~100 representative kinases (Homo sapiens, UniProt Q13873).
T5 construct: Recombinant protein kinase domains with a concentration of 2 μM
T5 sequence (Q13873 27-1038): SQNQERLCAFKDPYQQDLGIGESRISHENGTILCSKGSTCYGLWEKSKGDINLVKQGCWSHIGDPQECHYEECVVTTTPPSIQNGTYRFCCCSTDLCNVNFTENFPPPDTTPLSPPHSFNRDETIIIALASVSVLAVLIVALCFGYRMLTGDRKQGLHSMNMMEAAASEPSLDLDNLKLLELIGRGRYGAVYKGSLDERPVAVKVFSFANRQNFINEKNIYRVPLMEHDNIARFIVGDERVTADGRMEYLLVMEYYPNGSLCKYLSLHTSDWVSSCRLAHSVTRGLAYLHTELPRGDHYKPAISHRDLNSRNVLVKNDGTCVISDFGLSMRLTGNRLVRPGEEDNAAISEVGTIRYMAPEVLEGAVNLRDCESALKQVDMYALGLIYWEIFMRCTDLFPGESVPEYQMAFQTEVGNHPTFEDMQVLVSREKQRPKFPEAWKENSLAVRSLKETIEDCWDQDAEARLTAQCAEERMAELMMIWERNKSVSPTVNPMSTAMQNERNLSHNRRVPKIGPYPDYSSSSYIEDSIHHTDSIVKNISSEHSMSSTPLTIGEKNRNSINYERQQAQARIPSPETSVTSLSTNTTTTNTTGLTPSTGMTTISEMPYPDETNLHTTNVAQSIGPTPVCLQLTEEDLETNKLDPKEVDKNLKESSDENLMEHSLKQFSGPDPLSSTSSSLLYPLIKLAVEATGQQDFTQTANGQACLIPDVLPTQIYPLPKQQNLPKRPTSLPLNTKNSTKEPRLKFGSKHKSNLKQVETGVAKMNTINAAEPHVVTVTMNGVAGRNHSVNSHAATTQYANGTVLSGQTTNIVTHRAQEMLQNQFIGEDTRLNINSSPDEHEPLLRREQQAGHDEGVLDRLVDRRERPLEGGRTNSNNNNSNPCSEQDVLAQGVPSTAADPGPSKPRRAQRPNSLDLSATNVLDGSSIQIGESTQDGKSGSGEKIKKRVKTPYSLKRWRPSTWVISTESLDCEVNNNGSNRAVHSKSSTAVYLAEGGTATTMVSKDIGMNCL
The following applies: Protein BMPR2; average of three replicates. An outline of the steps: as §1

Assay [6] concerns the target T6, ~100 representative kinases (Homo sapiens, UniProt Q96L34).
T6 construct: Recombinant protein kinase domains with a concentration of 2 μM
T6 sequence (Q96L34 1-752): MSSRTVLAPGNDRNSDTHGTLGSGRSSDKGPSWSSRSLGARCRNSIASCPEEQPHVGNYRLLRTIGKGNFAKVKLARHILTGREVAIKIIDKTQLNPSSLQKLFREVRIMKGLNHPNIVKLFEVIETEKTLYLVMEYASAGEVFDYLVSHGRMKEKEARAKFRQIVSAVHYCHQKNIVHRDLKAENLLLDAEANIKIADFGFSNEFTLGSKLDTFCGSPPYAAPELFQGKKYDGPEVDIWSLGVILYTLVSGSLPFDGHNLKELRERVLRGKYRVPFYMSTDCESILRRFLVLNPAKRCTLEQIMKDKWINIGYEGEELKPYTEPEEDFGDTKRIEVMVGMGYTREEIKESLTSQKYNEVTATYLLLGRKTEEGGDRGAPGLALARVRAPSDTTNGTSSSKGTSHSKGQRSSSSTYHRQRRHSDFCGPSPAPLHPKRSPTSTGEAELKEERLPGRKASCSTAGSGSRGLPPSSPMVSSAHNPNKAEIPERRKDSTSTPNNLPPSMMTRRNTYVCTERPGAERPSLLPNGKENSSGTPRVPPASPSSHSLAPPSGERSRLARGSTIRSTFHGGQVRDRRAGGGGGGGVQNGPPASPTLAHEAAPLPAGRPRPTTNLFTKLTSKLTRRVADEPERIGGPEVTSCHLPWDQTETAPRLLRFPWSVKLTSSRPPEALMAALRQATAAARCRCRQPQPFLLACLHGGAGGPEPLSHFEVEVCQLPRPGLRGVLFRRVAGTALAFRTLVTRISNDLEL
The following applies: protein MARK4; average of three replicates. An outline of the steps:
as §1

Regarding `O=C(Nc1cccc(-c2c[nH]c3ncnc(N4CCOCC4)c23)c1)C1(C(=O)Nc2ccc(F)c(Cl)c2)CC1` [Compound 18], the dTm in assay [1] amounted to 12.04 K; in assay [2], 1.40 K; in assay [3], 4.42 K; in assay [4], 2.96 K; in assay [5], 1.13 K; in assay [6], 4.93 K.
With `CCc1ccc(NC(=O)C2(C(=O)Nc3cccc(-c4c[nH]c5ncnc(N6CCOCC6)c45)c3)CC2)cc1` [Compound 15], the dTm in assay [1] was determined as 8.81 K; in assay [2], 1.78 K; in assay [3], 2.88 K; in assay [4] it was 2.06 K; in assay [5] it was 0.80 K; in assay [6], 4.84 K.
In the case of `CCNc1nc(Nc2cc(F)c(C(=O)N3CCOCC3)cc2OC)ncc1C(F)(F)F` [GNE-7915], the dTm is 0.51 K in assay [1]; -0.58 K in assay [2]; 1.84 K in assay [3]; 0.65 K in assay [4]; 1.37 K in assay [5]; -0.13 K in assay [6].
Consider `O=C(Nc1cccc(-c2c[nH]c3ncnc(N4CCOCC4)c23)c1)c1cccn(-c2ccc(F)cc2)c1=O` [Compound 4], for which the dTm in assay [1] is given as 12.71 K; in assay [2], -0.36 K; in assay [3], 2.86 K; in assay [4] it was 2.38 K; in assay [5], 0.82 K; in assay [6] it was 3.88 K.
In the case of `Cc1ccc(C(=O)Nc2ccc(CN3CCN(C)CC3)c(C(F)(F)F)c2)cc1C#Cc1cnc2[nH]ncc2c1` [GZD-824, reference compound], the dTm in assay [1] is reported as 6.08 K; in assay [2] it was -0.68 K; in assay [3], 4.75 K; in assay [4], 0.96 K; in assay [6], 1.02 K.
For `O=C(Nc1ccccc1)C1(C(=O)Nc2cccc(-c3c[nH]c4ncnc(N5CCOCC5)c34)c2)CC1` [Compound 12], the dTm in assay [1] was 7.89 K; in assay [2], -0.82 K; in assay [3] it was 2.26 K; in assay [4] it was 2.08 K; in assay [5], 1.02 K; in assay [6], 3.45 K.
`Cc1ccc(C(=O)Nc2ccc(CN3CCN(C)CC3)c(C(F)(F)F)c2)cc1C#Cc1c[nH]c2ncnc(N3CCOCC3)c12` [Compound 1]: the dTm in assay [1] worked out at 4.74 K; in assay [2], 0.36 K; in assay [3], 4.76 K; in assay [4] it was 3.80 K; in assay [5], 1.36 K; in assay [6], 1.18 K.
As for `Cc1cc(F)ccc1NC(=O)C1(C(=O)Nc2cccc(-c3c[nH]c4ncnc(N5CCOCC5)c34)c2)CC1` [Compound 24], the dTm in assay [1] is reported as 6.95 K; in assay [2], 0.30 K; in assay [3], 0.69 K; in assay [4], 3.14 K; in assay [5] it was 0.57 K; in assay [6], 2.55 K.
For the compound `O=C(Nc1cc(F)cc(Br)c1)C1(C(=O)Nc2cccc(-c3c[nH]c4ncnc(N5CCOCC5)c34)c2)CC1` [Compound 27], the dTm in assay [1] is on record as 4.18 K; in assay [2], -2.32 K; in assay [3] it was 2.41 K; in assay [4] it was 2.66 K; in assay [5], 0.25 K; in assay [6], 1.77 K.
Turning to `O=C(Nc1ccc(Cl)cc1)C1(C(=O)Nc2cccc(-c3c[nH]c4ncnc(N5CCOCC5)c34)c2)CC1` [Compound 13], the dTm was 11.74 K in assay [1]; 1.29 K in assay [2]; 4.87 K in assay [3]; 2.65 K in assay [4]; 1.26 K in assay [5]; 5.82 K in assay [6].
`COc1cc(S(C)(=O)=O)ccc1Nc1nc(N(C)C)c2c(Cl)c[nH]c2n1` [Compound 37]: the dTm is 0.37 K in assay [1]; 1.43 K in assay [2]; 1.12 K in assay [3]; 5.52 K in assay [4]; -0.0179 K in assay [5]; 0.42 K in assay [6].
For the compound `O=C(Nc1cccc(-c2c[nH]c3ncnc(N4CCOCC4)c23)c1)C1(C(=O)Nc2ccc(F)c(F)c2)CC1` [Compound 17], the dTm in assay [1] is 9.50 K; in assay [2], 0.99 K; in assay [3], 3.44 K; in assay [4] it was 2.36 K; in assay [5], 0.95 K; in assay [6], 3.95 K.
Regarding `CNC(=O)c1cc(Oc2ccc(NC(=O)Nc3cc(C(C)(C)C)nn3-c3ccc4ncccc4c3)c(F)c2)ccn1` [Rebastinib, reference compound], the dTm in assay [1] is 13.29 K; in assay [2] it was -2.54 K; in assay [3] it was 8.68 K; in assay [4], 0.26 K; in assay [5] it was -0.70 K; in assay [6], 2.04 K.
`CN[C@@H]1C[C@H]2O[C@@](C)([C@@H]1OC)n1c3ccccc3c3c4c(c5c6ccccc6n2c5c31)C(=O)NC4` [Staurosporine]: the dTm in assay [1] stood at 8.03 K; in assay [2] it was 0.52 K; in assay [4], 12.80 K; in assay [5], 3.02 K; in assay [6] it was 15.90 K.
With `Cc1ccc(C(=O)Nc2ccc(CN3CCN(C)CC3)c(C(F)(F)F)c2)cc1C#Cc1cnc2cccnn12` [Ponatinib, reference compound], the dTm is recorded as -0.60 K in assay [2] and -0.48 K in assay [6].
